Experimental data reported in US20250290014A1, “DETERGENT COMPOSITION” (Saraya Co., Ltd., priority 2022, published 2025).

System: human three-dimensional cultured epidermis model
Experiment: Skin irritation of fatty acid alkali metal salts, OECD TG439 (Experimental Example 3)
Assay type: cell-based
Settings: 0.1 M fatty acid aqueous solution, 25 μL, 15 minutes exposure, N=3; ≤50% viability irritating
Protocol: The skin irritation of alkali metal salts of various fatty acids (potassium laurate, potassium myristate, potassium palmitate, and potassium oleate) was evaluated by the following method based on OECD Test Guideline TG439. […]

SMILES: CCCCCCCCCCCC(=O)[O-].[K+] [lauric acid salt, potassium laurate]
- Skin irritation determination from cell viability (FIG. 3): irritating
